Legend:
[1] = system: L02 (human normal liver cells); assay: Cytotoxicity against normal cell line L02; assay type: cell-based
Text: The lack of selectivity between normal and cancer cells is one of the main limitations of antitumor drugs ([Dy and Adjei, 2013]). Therefore, we evaluated the cytotoxicity of compounds B2, and E in normal cell lines L02 (human normal liver cells) to determine the selectivity index (ratio of cytotoxicity in L02 cells compared to that in cancer cells). […] Therefore, this compound was chosen for further biological studies.
The propidium iodide (PI) and Annexin V-FITC apoptosis detection kit were purchased from Invitrogen (Eugene, OR, United States). 3-(4,5-Dimethylthiazol-2-yl)-2,5-diphenyl-2H-tetrazolium bromide (MTT) was purchased from Sigma-Aldrich Co. (St. Louis, MO, United States). All human cell lines were used in this study, colorectal cancer cell HCT116, colorectal cancer cell SW620, breast cancer cell MCF-7, liver hepatocellular carcinoma cell BEL7402, liver hepatocellular carcinoma HepG2 and normal liver cell L02 were initially purchased from American Type Culture Collection (ATCC, Manassas, VA, United States). RPMI-1640 media, Dulbecco’s modified Eagle’s medium (DMEM), and foetal bovine serum (FBS) were provided from Gibco Company (Grand Island, NY, United States). Cell line MCF-7 and HepG2 were cultivated in DMEM containing 10% (v/v) heat-inactivated FBS, 100 units/ml penicillin and […] streptomycin (Grand Island, NY, United States). Cell lines HCT116, BEL7402, SW620, and L02 were cultivated in RPMI 1640 medium containing 10% (v/v) heat-inactivated FBS, 100 units/ml penicillin, and […] streptomycin. The cells were incubated at 37°C under a 5% CO2 and 90% relative humidity (RH) atmosphere.
Stock solutions were prepared by diluting target compounds in DMSO at concentrations (1.25, 2.5, 5, and 10 mM). The stock solution was then diluted (1.25, 2.5, 5, and 10 μM) with culture medium, and the concentration of DMSO was controlled not to exceed 0.1%.
Place the cells in a 96-well plate at an appropriate density to ensure exponential growth (1 × 10^4–1.2×10^4 cells per well) throughout the experiment, and then allow the cells to adhere for 24 h. The cells were then treated with continuous concentrations of each compound (1.25, 2.5, 5, and 10 μM) for 48 h. After 48 h of incubation, 15 μl of MTT solution was added to each well, and the final concentration was 2 mg/ml. Then incubate for another 4 h. After incubation, remove the MTT solution and add […] of DMSO to each well for staining. Shake vigorously for 10 min at room temperature to ensure complete dissolution. The optical density (OD) was read on a microplate reader (ELx 800, BioTek, Highland Park, Winooski, VT, United States) with a wavelength of 492 nm, and then the data was analyzed.

[2] = system: HCT116 cells; assay: H&E staining of morphological changes; assay type: cell-based, human; settings: HCT116, 2.5, 5, 10 μM, 24 h
Procedure: Induction of apoptosis is the mechanism of action of many anti-proliferative drugs. When cells undergo apoptosis, they generally also undergo morphological changes ([Liu et al., 2009]). Therefore, we used H&E staining to assess morphological changes in the cells.
FIGURE 5 Cell morphological alterations and nuclear changes associated with HCT116 cells after incubation with varying concentrations E (0, 2.5, 5, 10 μM) for 24 h were assessed by staining with H&E and visualized by microscopy.

[3] = system: HCT116 (human colorectal cancer cell line); assay: MTT anti-proliferative assay, HCT116; assay type: cell-based; settings: means ± SD, n = 3
Summary of the method: (§1)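 Cells seeded at 1 × 10^4–1.2 × 10^4 per well were allowed to adhere 24 h, then exposed 48 h at 37 °C, 5% CO2 to compound at 1.25, 2.5, 5 and 10 μM (DMSO ≤0.1%). MCF-7 and HepG2 were grown in DMEM, HCT116 and BEL7402 in RPMI 1640, each with 10% FBS. MTT (final 2 mg/ml) was added for 4 h; formazan was dissolved in DMSO and read at 492 nm.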

[4] = system: HepG2 (human hepatocellular carcinoma cell line); assay: MTT anti-proliferative assay, HepG2; assay type: cell-based; settings: means ± SD, n = 3
Summary of the method: as §1

[5] = system: Bcl-2; assay: Western blot, Bcl-2 expression; assay type: cell-based, human; settings: HCT116, 10 μM, 24 h
Procedure: The Bcl-2 protein family (including the anti-apoptotic protein Bcl-2 and the pro-apoptotic protein Bax) is a group of key apoptotic proteins that play an important role in the regulation of apoptosis ([Han et al., 2013]; [Zhang and Saghatelian, 2013]; [Zheng et al., 2021]). HCT116 cells were treated with different concentrations (2.5, 5, and 10 μM) of E to detect the expression of Bax and Bcl-2 proteins.
FIGURE 7 Effect of compound E on the levels of Bax, and Bcl-2 in HCT116 cells. Cells were pretreated with the various concentrations of compound E (2.5, 5 and 10 μM) for 24 h. The expression of Bax, and Bcl-2 were analyzed by Western blot. ***p < 0.001, **p < 0.01, *p < 0.05 vs. control group. The error bars represent the mean ± SD for three independent experiments.
HCT116 cells were cultured with different concentrations of compound E for 24 h. Then, the floating cells were collected and washed twice with ice-cold PBS. Add cold RIPA buffer. After the cells were lysed on ice for 20 min, the lysate was centrifuged at 12,000 rpm for 15 min at 4°C. The BCA method determines the protein concentration. Separated by SDS/PAGE electrophoresis and transferred to a nitrocellulose filter membrane for Western blot analysis. The membrane was blocked with PBS containing 5% skim milk at room temperature for 2 h. […] The protein is detected by electrochemiluminescence (Bio-Rad, CA, United State).

IC50 values HCT116 ([3]; 48 h incubation): strong activity
IC50 ([3]; Homo sapiens, HCT-116, 48 h incubation): 2.46 ± 0.44 µM
IC50 values HepG2 ([4]; 48 h incubation): strong activity
IC50 ([4]; Homo sapiens, HepG2, 48 h incubation): 8.89 ± 2.24 µM
SMILES: CC1(C)CC[C@]2(C(=O)OCCn3nnnc3-c3ccccc3)[C@H](O)C[C@]3(C)C(=CC[C@@H]4[C@@]5(C)CC[C@H](O)[C@@](C)(C=O)[C@@H]5CC[C@]43C)[C@@H]2C1 [Compound E, 2-(5-phenyl-1H-tetrazol-1-yl)ethyl (4aR,5R,6aS,6bR,8aR,9S,10S,12aR,12bR,14bS)-9-formyl-5,10-dihydroxy-2,2,6a,6b,9,12a-hexamethyl-1,3,4,5,6,6a,6b,7,8,8a,9,10,11,12,12a,12b,13,14b-octadecahydropicene-4a (2H)-carboxylate]
IC50 ([1]; Homo sapiens, normal cell line L02): > 10 µM
Selectivity index BEL7402 ([1]; IC50 on normal cells (L02)/IC50 on tumour cells (BEL7402)): > 1.45
Selectivity index HCT116 ([1]; IC50 on normal cells (L02)/IC50 on tumour cells (HCT116)): > 4.06
Selectivity index HepG2 ([1]; IC50 on normal cells (L02)/IC50 on tumour cells (HepG2)): > 1.12
Selectivity index SW620 ([1]; IC50 on normal cells (L02)/IC50 on tumour cells (SW620)): > 2.13
morphological changes (H&E staining) [2]: significant apoptotic morphological changes
level of Bcl-2 [5]: decreased

Source: article PMC9490060, “Synthesis and evaluation of anticancer activity of quillaic acid derivatives: A cell cycle arrest and apoptosis inducer through NF-κB and MAPK pathways” (Frontiers in Chemistry, 2022)
